Assay results: ChEMBL document CHEMBL1201862, “PubChem BioAssay data set” (2004)
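All cell lines were grown in 96-well plates and treated with compound for 48 hours. The concentration for 50% growth inhibition is given as GI50.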 The source made the active and inactive calls. No stated cut-off is given here; in the data, active = GI50 up to about 1.1 µM and inactive = higher.

Assays:
Assay in all cases: NCI-60 cell line screen, 48 h
KM12 = tested on: KM12
MDA-MB-435 = tested on: MDA-MB-435
M14 = tested on: M14
SK-MEL-2 = tested on: SK-MEL-2
Hs-578T = tested on: Hs-578T
PC-3 = tested on: PC-3
RXF 393 = tested on: RXF 393
SF-268 = tested on: SF-268
CAKI-1 = tested on: CAKI-1
UO-31 = tested on: UO-31
OVCAR-8 = tested on: OVCAR-8
SK-OV-3 = tested on: SK-OV-3
SW-620 = tested on: SW-620
NCI-H226 = tested on: NCI-H226
BT-549 = tested on: BT-549
A498 = tested on: A498
HL-60 = tested on: HL-60
SF-295 = tested on: SF-295
SF-539 = tested on: SF-539
EKVX = tested on: EKVX
COLO 205 = tested on: COLO 205
OVCAR-5 = tested on: OVCAR-5
UACC-257 = tested on: UACC-257
TK-10 = tested on: TK-10
CCRF-CEM = tested on: CCRF-CEM
SK-MEL-5 = tested on: SK-MEL-5
LOX IMVI = tested on: LOX IMVI
SNB-19 = tested on: SNB-19
OVCAR-3 = tested on: OVCAR-3
786-0 = tested on: 786-0
HT-29 = tested on: HT-29
NCI-H460 = tested on: NCI-H460
IGROV-1 = tested on: IGROV-1
HCT-116 = tested on: HCT-116
HCT-15 = tested on: HCT-15
ACHN = tested on: ACHN
DU-145 = tested on: DU-145
RPMI-8226 = tested on: RPMI-8226
Malme-3M = tested on: Malme-3M
MDA-MB-231 = tested on: MDA-MB-231
SNB-75 = tested on: SNB-75
UACC-62 = tested on: UACC-62
SK-MEL-28 = tested on: SK-MEL-28
U-251 = tested on: U-251
NCI/ADR-RES = tested on: NCI/ADR-RES
MCF7 = tested on: MCF7
SN12C = tested on: SN12C
K562 = tested on: K562
HOP-62 = tested on: HOP-62
NCI-H23 = tested on: NCI-H23
MOLT-4 = tested on: MOLT-4
HOP-92 = tested on: HOP-92
A549 = tested on: A549
HCC 2998 = tested on: HCC 2998
MDA-N = tested on: MDA-N
NCI-H522 = tested on: NCI-H522
SR = tested on: SR

Cn1cc(NC(=O)c2cc(NC(=O)c3cc(NC=O)cn3C)cn2C)cc1C(=O)NCCC(=N)N [STALLIMYCIN]
GI50 (KM12): > 100 µM (inactive) | GI50 (MDA-MB-435): > 100 µM (inactive) | GI50 (M14): > 100 µM (inactive) | GI50 (SK-MEL-2): > 100 µM (inactive) | GI50 (Hs-578T): 53.1 µM (inactive) | GI50 (PC-3): > 100 µM (inactive) | GI50 (RXF 393): > 100 µM (inactive) | GI50 (SF-268): > 100 µM (inactive) | GI50 (CAKI-1): > 100 µM (inactive) | GI50 (UO-31): > 100 µM (inactive) | GI50 (OVCAR-8): > 100 µM (inactive) | GI50 (SK-OV-3): > 100 µM (inactive) | GI50 (SW-620): > 100 µM (inactive) | GI50 (NCI-H226): 7.87 µM (inactive) | GI50 (BT-549): > 100 µM (inactive) | GI50 (A498): 87.9 µM (inactive) | GI50 (HL-60): > 100 µM (inactive) | GI50 (SF-295): > 100 µM (inactive) | GI50 (SF-539): > 100 µM (inactive) | GI50 (EKVX): > 100 µM (inactive) | GI50 (COLO 205): > 100 µM (inactive) | GI50 (OVCAR-5): > 100 µM (inactive) | GI50 (UACC-257): > 100 µM (inactive) | GI50 (TK-10): > 100 µM (inactive) | GI50 (CCRF-CEM): > 100 µM (inactive) | GI50 (SK-MEL-5): > 100 µM (inactive) | GI50 (LOX IMVI): > 100 µM (inactive) | GI50 (SNB-19): > 100 µM (inactive) | GI50 (OVCAR-3): > 100 µM (inactive) | GI50 (786-0): > 100 µM (inactive) | GI50 (HT-29): > 100 µM (inactive) | GI50 (NCI-H460): > 100 µM (inactive) | GI50 (IGROV-1): > 100 µM (inactive) | GI50 (HCT-116): > 100 µM (inactive) | GI50 (HCT-15): > 100 µM | GI50 (ACHN): > 100 µM (inactive) | GI50 (DU-145): > 100 µM (inactive) | GI50 (RPMI-8226): > 100 µM (inactive) | GI50 (Malme-3M): 25.5 µM (inactive) | GI50 (MDA-MB-231): > 100 µM (inactive) | GI50 (SNB-75): 22.8 µM (inactive) | GI50 (UACC-62): 61.4 µM (inactive) | GI50 (SK-MEL-28): > 100 µM (inactive) | GI50 (U-251): > 100 µM (inactive) | GI50 (NCI/ADR-RES): > 100 µM (inactive) | GI50 (MCF7): > 100 µM (inactive) | GI50 (SN12C): > 100 µM (inactive) | GI50 (K562): > 100 µM (inactive) | GI50 (HOP-62): > 100 µM (inactive) | GI50 (NCI-H23): > 100 µM (inactive) | GI50 (MOLT-4): > 100 µM (inactive)

CC(=O)OCC1OC(n2c(-c3ccccc3)cc(-c3ccccc3)c(C#N)c2=O)C(OC(C)=O)C(OC(C)=O)C1OC(C)=O (stereo not drawn)
GI50 (RXF 393): 56 µM (inactive)

Cc1nc2ccc(Cl)cc2c(Cl)c1CCCl
GI50 (KM12): 30.8 µM (inactive) | GI50 (MDA-MB-435): 8.36 µM (inactive) | GI50 (M14): 31 µM (inactive) | GI50 (SK-MEL-2): 29.6 µM (inactive) | GI50 (HOP-92): 33.5 µM (inactive) | GI50 (Hs-578T): 38.1 µM (inactive) | GI50 (A549): 40.9 µM (inactive) | GI50 (PC-3): 80.7 µM (inactive) | GI50 (RXF 393): > 100 µM (inactive) | GI50 (SF-268): > 100 µM (inactive) | GI50 (CAKI-1): 54 µM (inactive) | GI50 (UO-31): 42.2 µM (inactive) | GI50 (OVCAR-8): 62.4 µM (inactive) | GI50 (SK-OV-3): > 100 µM (inactive) | GI50 (SW-620): 40.2 µM (inactive) | GI50 (HCC 2998): 30.7 µM (inactive) | GI50 (MDA-N): 8.15 µM (inactive) | GI50 (NCI-H226): 43.6 µM (inactive) | GI50 (NCI-H522): 39.3 µM (inactive) | GI50 (A498): 83 µM (inactive) | GI50 (HL-60): 46.6 µM (inactive) | GI50 (SF-295): 48.2 µM (inactive) | GI50 (SF-539): > 100 µM (inactive) | GI50 (EKVX): 51.3 µM (inactive) | GI50 (COLO 205): 57.3 µM (inactive) | GI50 (OVCAR-5): 38.5 µM (inactive) | GI50 (UACC-257): 74 µM (inactive) | GI50 (TK-10): > 100 µM (inactive) | GI50 (CCRF-CEM): 15.1 µM (inactive) | GI50 (SK-MEL-5): 25.3 µM (inactive) | GI50 (LOX IMVI): 43.6 µM (inactive) | GI50 (SNB-19): 45.4 µM (inactive) | GI50 (OVCAR-3): 48 µM (inactive) | GI50 (786-0): > 100 µM (inactive) | GI50 (HT-29): 27.2 µM (inactive) | GI50 (NCI-H460): 43.4 µM (inactive) | GI50 (IGROV-1): 72.6 µM (inactive) | GI50 (HCT-116): 25.4 µM (inactive) | GI50 (HCT-15): 43.1 µM | GI50 (ACHN): > 100 µM (inactive) | GI50 (DU-145): 43.7 µM (inactive) | GI50 (RPMI-8226): 35.2 µM (inactive) | GI50 (Malme-3M): > 100 µM (inactive) | GI50 (MDA-MB-231): 83.6 µM (inactive) | GI50 (SNB-75): 29.4 µM (inactive) | GI50 (UACC-62): 28.1 µM (inactive) | GI50 (SK-MEL-28): > 100 µM (inactive) | GI50 (U-251): 45.9 µM (inactive) | GI50 (NCI/ADR-RES): 33.5 µM (inactive) | GI50 (MCF7): 30.6 µM (inactive) | GI50 (SR): 34.4 µM (inactive) | GI50 (SN12C): 39.5 µM (inactive) | GI50 (K562): 9.86 µM (inactive) | GI50 (HOP-62): 42.4 µM (inactive) | GI50 (NCI-H23): 60.4 µM (inactive) | GI50 (MOLT-4): 15.6 µM (inactive)
